From ChEMBL document CHEMBL1641605, “Diphenylpropynone derivatives as probes for imaging β-amyloid plaques in Alzheimer's brains” (Bioorg Med Chem Lett, 2011)
One block for each molecule: values may come before it. Calls of active or inactive are those of the source. No cut-off for these calls is given here.

Tests used:
[1] = biological target: Amyloid-beta precursor protein (Homo sapiens, UniProt P05067); experiment: Displacement of [125I]DMIC from Amyloid beta (1 to 42) after 3 hrs by gamma counting
Chain of Amyloid-beta precursor protein (P05067 whole entry): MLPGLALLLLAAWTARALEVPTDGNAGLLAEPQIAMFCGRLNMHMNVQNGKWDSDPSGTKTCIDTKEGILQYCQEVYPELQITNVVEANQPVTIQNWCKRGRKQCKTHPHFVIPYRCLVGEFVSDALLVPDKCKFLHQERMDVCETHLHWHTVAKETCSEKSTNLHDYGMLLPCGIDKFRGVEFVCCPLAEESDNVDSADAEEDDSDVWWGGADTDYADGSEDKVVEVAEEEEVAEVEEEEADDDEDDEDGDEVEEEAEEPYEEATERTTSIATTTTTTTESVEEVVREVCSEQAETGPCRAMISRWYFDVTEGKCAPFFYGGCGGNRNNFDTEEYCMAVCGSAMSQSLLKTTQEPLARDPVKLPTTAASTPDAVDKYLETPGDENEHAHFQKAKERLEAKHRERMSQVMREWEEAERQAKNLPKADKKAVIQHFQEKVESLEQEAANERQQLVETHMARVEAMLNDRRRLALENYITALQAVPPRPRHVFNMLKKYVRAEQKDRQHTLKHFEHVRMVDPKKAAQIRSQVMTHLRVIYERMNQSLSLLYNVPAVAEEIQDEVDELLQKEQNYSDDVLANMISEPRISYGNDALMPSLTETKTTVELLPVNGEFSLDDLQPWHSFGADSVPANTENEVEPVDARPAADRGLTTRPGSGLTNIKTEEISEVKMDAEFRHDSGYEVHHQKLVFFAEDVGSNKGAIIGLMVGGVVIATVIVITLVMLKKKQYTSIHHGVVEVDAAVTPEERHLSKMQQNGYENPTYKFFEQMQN

Brain [2] = experiment: Biodistribution in ddY mouse brain assessed as per gram of tissue at 0.3 to 0.5 uCi, iv after 30 mins by gamma counting; format: ADME, organism-based; settings: in vivo, 0.5 h
Heart [3] = experiment: Biodistribution in ddY mouse heart assessed as per gram of tissue at 0.3 to 0.5 uCi, iv after 30 mins by gamma counting; format: ADME, organism-based; settings: in vivo, 0.5 h
Pancreas [4] = experiment: Biodistribution in ddY mouse pancreas assessed as per gram of tissue at 0.3 to 0.5 uCi, iv after 30 mins by gamma counting; format: ADME, organism-based; settings: in vivo, 0.5 h
Stomach [5] = experiment: Biodistribution in ddY mouse stomach assessed as per gram of tissue at 0.3 to 0.5 uCi, iv after 30 mins by gamma counting; format: ADME, organism-based; settings: in vivo, 0.5 h
Spleen [6] = experiment: Biodistribution in ddY mouse spleen assessed as per gram of tissue at 0.3 to 0.5 uCi, iv after 30 mins by gamma counting; format: ADME, organism-based; settings: in vivo, 0.5 h
Intestine [7] = experiment: Biodistribution in ddY mouse intestine assessed as per organ at 0.3 to 0.5 uCi, iv after 30 mins by gamma counting; format: ADME, organism-based; settings: in vivo, 0.5 h
Kidney [8] = experiment: Biodistribution in ddY mouse kidney assessed as per gram of tissue at 0.3 to 0.5 uCi, iv after 30 mins by gamma counting; format: ADME, organism-based; settings: in vivo, 0.5 h
Liver [9] = experiment: Biodistribution in ddY mouse liver assessed as per gram of tissue at 0.3 to 0.5 uCi, iv after 30 mins by gamma counting; format: ADME, organism-based; settings: in vivo, 0.5 h
Blood [10] = experiment: Biodistribution in ddY mouse blood assessed as per gram of tissue at 0.3 to 0.5 uCi, iv after 30 mins by gamma counting; format: ADME, organism-based; settings: in vivo, 0.5 h
Brain [11] = experiment: Biodistribution in ddY mouse brain assessed as per gram of tissue at 0.3 to 0.5 uCi, iv after 10 mins by gamma counting; format: ADME, organism-based; settings: in vivo
Heart [12] = experiment: Biodistribution in ddY mouse heart assessed as per gram of tissue at 0.3 to 0.5 uCi, iv after 10 mins by gamma counting; format: ADME, organism-based; settings: in vivo
Pancreas [13] = experiment: Biodistribution in ddY mouse pancreas assessed as per gram of tissue at 0.3 to 0.5 uCi, iv after 10 mins by gamma counting; format: ADME, organism-based; settings: in vivo
Stomach [14] = experiment: Biodistribution in ddY mouse stomach assessed as per gram of tissue at 0.3 to 0.5 uCi, iv after 10 mins by gamma counting; format: ADME, organism-based; settings: in vivo
Spleen [15] = experiment: Biodistribution in ddY mouse spleen assessed as per gram of tissue at 0.3 to 0.5 uCi, iv after 10 mins by gamma counting; format: ADME, organism-based; settings: in vivo
Intestine [16] = experiment: Biodistribution in ddY mouse intestine assessed as per organ at 0.3 to 0.5 uCi, iv after 10 mins by gamma counting; format: ADME, organism-based; settings: in vivo
Kidney [17] = experiment: Biodistribution in ddY mouse kidney assessed as per gram of tissue at 0.3 to 0.5 uCi, iv after 10 mins by gamma counting; format: ADME, organism-based; settings: in vivo
Liver [18] = experiment: Biodistribution in ddY mouse liver assessed as per gram of tissue at 0.3 to 0.5 uCi, iv after 10 mins by gamma counting; format: ADME, organism-based; settings: in vivo
Blood [19] = experiment: Biodistribution in ddY mouse blood assessed as per gram of tissue at 0.3 to 0.5 uCi, iv after 10 mins by gamma counting; format: ADME, organism-based; settings: in vivo
Brain [20] = experiment: Biodistribution in ddY mouse brain assessed as per gram of tissue at 0.3 to 0.5 uCi, iv after 2 mins by gamma counting; format: ADME, organism-based; settings: in vivo
Heart [21] = experiment: Biodistribution in ddY mouse heart assessed as per gram of tissue at 0.3 to 0.5 uCi, iv after 2 mins by gamma counting; format: ADME, organism-based; settings: in vivo
Pancreas [22] = experiment: Biodistribution in ddY mouse pancreas assessed as per gram of tissue at 0.3 to 0.5 uCi, iv after 2 mins by gamma counting; format: ADME, organism-based; settings: in vivo
Stomach [23] = experiment: Biodistribution in ddY mouse stomach assessed as per gram of tissue at 0.3 to 0.5 uCi, iv after 2 mins by gamma counting; format: ADME, organism-based; settings: in vivo
Spleen [24] = experiment: Biodistribution in ddY mouse spleen assessed as per gram of tissue at 0.3 to 0.5 uCi, iv after 2 mins by gamma counting; format: ADME, organism-based; settings: in vivo
Intestine [25] = experiment: Biodistribution in ddY mouse intestine assessed as per organ at 0.3 to 0.5 uCi, iv after 2 mins by gamma counting; format: ADME, organism-based; settings: in vivo
Kidney [26] = experiment: Biodistribution in ddY mouse kidney assessed as per gram of tissue at 0.3 to 0.5 uCi, iv after 2 mins by gamma counting; format: ADME, organism-based; settings: in vivo
Liver [27] = experiment: Biodistribution in ddY mouse liver assessed as per gram of tissue at 0.3 to 0.5 uCi, iv after 2 mins by gamma counting; format: ADME, organism-based; settings: in vivo
Blood [28] = experiment: Biodistribution in ddY mouse blood assessed as per gram of tissue at 0.3 to 0.5 uCi, iv after 2 mins by gamma counting; format: ADME, organism-based; settings: in vivo
Blood [29] = experiment: Biodistribution in ddY mouse blood assessed as per gram of tissue at 0.3 to 0.5 uCi, iv after 60 mins by gamma counting; format: ADME, organism-based; settings: in vivo, 1 h
Liver [30] = experiment: Biodistribution in ddY mouse liver assessed as per gram of tissue at 0.3 to 0.5 uCi, iv after 60 mins by gamma counting; format: ADME, organism-based; settings: in vivo, 1 h
Kidney [31] = experiment: Biodistribution in ddY mouse kidney assessed as per gram of tissue at 0.3 to 0.5 uCi, iv after 60 mins by gamma counting; format: ADME, organism-based; settings: in vivo, 1 h
Intestine [32] = experiment: Biodistribution in ddY mouse intestine assessed as per organ at 0.3 to 0.5 uCi, iv after 60 mins by gamma counting; format: ADME, organism-based; settings: in vivo, 1 h
Spleen [33] = experiment: Biodistribution in ddY mouse spleen assessed as per gram of tissue at 0.3 to 0.5 uCi, iv after 60 mins by gamma counting; format: ADME, organism-based; settings: in vivo, 1 h
Stomach [34] = experiment: Biodistribution in ddY mouse stomach assessed as per gram of tissue at 0.3 to 0.5 uCi, iv after 60 mins by gamma counting; format: ADME, organism-based; settings: in vivo, 1 h
Pancreas [35] = experiment: Biodistribution in ddY mouse pancreas assessed as per gram of tissue at 0.3 to 0.5 uCi, iv after 60 mins by gamma counting; format: ADME, organism-based; settings: in vivo, 1 h
Heart [36] = experiment: Biodistribution in ddY mouse heart assessed as per gram of tissue at 0.3 to 0.5 uCi, iv after 60 mins by gamma counting; format: ADME, organism-based; settings: in vivo, 1 h
Brain [37] = experiment: Biodistribution in ddY mouse brain assessed as per gram of tissue at 0.3 to 0.5 uCi, iv after 60 mins by gamma counting; format: ADME, organism-based; settings: in vivo, 1 h
Mus musculus [38] = species: Mus musculus; experiment: Binding affinity to beta-amyloid in Tg2576 transgenic mouse brain after 3 mins by microscopic analysis; format: tissue-based
Mus musculus [39] = species: Mus musculus; experiment: Binding affinity to beta-amyloid in wild type mouse brain after 3 mins by microscopic analysis; format: tissue-based

- Ki [1]: 326 nM
SMILES: O=C(C#Cc1ccc(O)cc1)c1ccc(I)cc1

- Ki [1]: 13.7 nM
SMILES: COc1ccc(C#CC(=O)c2ccc(I)cc2)cc1

- Drug uptake (Brain [2]): 0.93 %ID
- Drug uptake (Heart [3]): 6.03 %ID
- Drug uptake (Pancreas [4]): 2.57 %ID
- Drug uptake (Stomach [5]): 2.35 %ID
- Drug uptake (Spleen [6]): 5.47 %ID
- Drug uptake (Intestine [7]): 12.04 %ID
- Drug uptake (Kidney [8]): 8.34 %ID
- Drug uptake (Liver [9]): 12.02 %ID
- Drug uptake (Blood [10]): 3.94 %ID
- Drug uptake (Brain [11]): 1.23 %ID
- Drug uptake (Heart [12]): 7.53 %ID
- Drug uptake (Pancreas [13]): 3.39 %ID
- Drug uptake (Stomach [14]): 2.97 %ID
- Drug uptake (Spleen [15]): 5.19 %ID
- Drug uptake (Intestine [16]): 8.44 %ID
- Drug uptake (Kidney [17]): 9.81 %ID
- Drug uptake (Liver [18]): 15.29 %ID
- Drug uptake (Blood [19]): 5.44 %ID
- Drug uptake (Brain [20]): 1.55 %ID
- Drug uptake (Heart [21]): 10 %ID
- Drug uptake (Pancreas [22]): 3.9 %ID
- Drug uptake (Stomach [23]): 0.75 %ID
- Drug uptake (Spleen [24]): 4.41 %ID
- Drug uptake (Intestine [25]): 2.73 %ID
- Drug uptake (Kidney [26]): 10.45 %ID
- Drug uptake (Liver [27]): 19.96 %ID
- Drug uptake (Blood [28]): 6.19 %ID
- Drug uptake (Blood [29]): 3.07 %ID
- Drug uptake (Liver [30]): 10.06 %ID
- Drug uptake (Kidney [31]): 7.75 %ID
- Drug uptake (Intestine [32]): 14.02 %ID
- Drug uptake (Spleen [33]): 4.43 %ID
- Drug uptake (Stomach [34]): 1.46 %ID
- Drug uptake (Pancreas [35]): 2.09 %ID
- Drug uptake (Heart [36]): 4.94 %ID
- Drug uptake (Brain [37]): 0.76 %ID
SMILES: CN(C)c1ccc(C#CC(=O)c2ccc([125I])cc2)cc1

- Ki [1]: 6 nM
- Activity (Mus musculus [38]): Active
- Activity (Mus musculus [39]): inactive
SMILES: CN(C)c1ccc(C#CC(=O)c2ccc(I)cc2)cc1

- Ki [1]: 20.4 nM
SMILES: CN(C)c1ccc(C#CC(=O)c2ccc(F)cc2)cc1
